Assay results: BindingDB's records for patent US9446044 (DIAXONHIT, 2016)

biological target: Dual specificity tyrosine-phosphorylation-regulated kinase 1A (Homo sapiens, UniProt Q13627); experiment: HotSpot Technology Assay; conditions: pH 7.5; 25 °C

| IC50 [nM] | Compound |
| --- | --- |
| 500 | COc1ccc(Nc2ncnc3ccc4nc(C(=N)N(C)C)sc4c23)cc1 [US9446044, 28] |
| 500 | NC(=O)c1nc2ccc3ncnc(Nc4ccc5c(c4)OCO5)c3c2s1 [US9446044, 39] |
| 500 | COC(=O)c1nc2ccc3ncnc(Nc4ccc5c(c4)OCO5)c3c2s1 [US9446044, 84] |
